# Reference: patent US20220104493A1, “HERBICIDAL COMPOUNDS” (SYNGENTA CROP PROTECTION AG, priority 2019, published 2022)
# Key:
# Assay in all cases: Post-emergence efficacy, Method A
# Assay type in all cases: in vivo
# [1] = tested on: Echinochloa crus-galli (ECHCG); conditions: 500 g/Ha, 100=total damage to plant, 0=no damage, evaluated after 7 and 14 days, read-out: Control of weed species after post-emergence application, ECHCG
# [2] = tested on: Digitaria sanguinalis (DIGSA); conditions: 500 g/Ha, 100=total damage to plant, 0=no damage, evaluated after 7 and 14 days, read-out: Control of weed species after post-emergence application, DIGSA
# Eleusine indica (ELEIN) = conditions: 500 g/Ha, 100=total damage to plant, 0=no damage, evaluated after 7 and 14 days, read-out: Control of weed species after post-emergence application, ELEIN
# Setaria faberi (SETFA) = conditions: 500 g/Ha, 100=total damage to plant, 0=no damage, evaluated after 7 and 14 days, read-out: Control of weed species after post-emergence application, SETFA
# [3] = tested on: Euphorbia heterophylla (EPHHL); conditions: 500 g/Ha, 100=total damage to plant, 0=no damage, evaluated after 7 and 14 days, read-out: Control of weed species after post-emergence application, EPHHL
# Lolium perenne (LOLPE) = conditions: 500 g/Ha, 100=total damage to plant, 0=no damage, evaluated after 7 and 14 days, read-out: Control of weed species after post-emergence application, LOLPE
# [4] = tested on: Amaranthus palmeri (AMAPA); conditions: 500 g/Ha, 100=total damage to plant, 0=no damage, evaluated after 7 and 14 days, read-out: Control of weed species after post-emergence application, AMAPA
# [5] = tested on: Chenopodium album (CHEAL); conditions: 500 g/Ha, 100=total damage to plant, 0=no damage, evaluated after 7 and 14 days, read-out: Control of weed species after post-emergence application, CHEAL
# [6] = tested on: Ipomoea hederacea (IPOHE); conditions: 500 g/Ha, 100=total damage to plant, 0=no damage, evaluated after 7 and 14 days, read-out: Control of weed species after post-emergence application, IPOHE
Compound,pest or weed control at 500 g/ha [1],pest or weed control at 500 g/ha [2],pest or weed control at 500 g/ha (Eleusine indica (ELEIN)),pest or weed control at 500 g/ha (Setaria faberi (SETFA)),pest or weed control at 500 g/ha [3],pest or weed control at 500 g/ha (Lolium perenne (LOLPE)),pest or weed control at 500 g/ha [4],pest or weed control at 500 g/ha [5],pest or weed control at 500 g/ha [6]
"OCC[n+]1ccc(-c2nnc(-c3ccccc3)o2)cc1 [Compound A69, 2-[4-(5-phenyl-1,3,4-oxadiazol-2-yl)pyridin-1-ium-1-yl]ethanol 2,2,2-trifluoroacetate]",20%,10%,30%,10%,20%,10%,20%,30%,20%
Cc1nc(-c2cc[n+](CCCS(=O)(=O)[O-])cc2)no1 [Compound A71],20%,30%,20%,10%,40%,0%,20%,50%,30%
Cn1nccc1-c1cc[n+](CCOS(=O)(=O)[O-])cc1 [Compound A74],20%,30%,20%,20%,20%,10%,10%,40%,10%
"O=C(O)CC[n+]1ccc(-c2nc(C(F)(F)F)ns2)c(Br)c1 [Compound A79, 3-[3-bromo-4-[3-(trifluoromethyl)-1,2,4-thiadiazol-5-yl]pyridin-1-ium-1-yl]propanoic acid acetate]",80%,80%,90%,70%,60%,30%,90%,40%,40%
O=C(O)C[n+]1ccc(-c2ccsn2)cc1 [Compound A81],10%,10%,40%,10%,20%,0%,70%,40%,0%
O=C(O)C[n+]1ccc(-c2ncsn2)cc1 [Compound A83],0%,20%,10%,10%,50%,10%,20%,30%,10%
O=S(=O)([O-])C[n+]1ccc(-c2nccs2)cc1 [Compound A84],30%,10%,50%,10%,50%,10%,70%,60%,10%
O=S(=O)([O-])C[n+]1ccc(-c2nc(C(F)(F)F)ns2)cc1 [Compound A85],100%,100%,100%,100%,100%,90%,100%,90%,100%
O=C(O)C[n+]1ccc(-c2ccns2)cc1 [Compound A86],20%,10%,20%,10%,40%,0%,40%,10%,10%
O=S(=O)([O-])C[n+]1ccc(-c2ccns2)cc1 [Compound A87],20%,0%,0%,20%,20%,0%,0%,10%,0%
N#Cc1csc(-c2cc[n+](CCC(=O)O)cc2)n1 [Compound A88],0%,0%,0%,0%,90%,0%,10%,20%,0%
N#Cc1nsc(-c2cc[n+](CCC(=O)O)cc2)n1 [Compound A89],60%,90%,80%,80%,20%,10%,30%,30%,10%
Nc1nsc(-c2cc[n+](CCC(=O)O)cc2)n1 [Compound A92],60%,80%,20%,60%,80%,10%,100%,60%,20%
Nc1nnc(-c2cc[n+](CC(=O)O)cc2)s1 [Compound A94],20%,30%,40%,10%,30%,10%,30%,40%,10%
Cc1nnc(-c2cc[n+](CC(=O)O)cc2)s1 [Compound A95],20%,10%,60%,10%,10%,0%,40%,30%,10%
O=S(=O)([O-])C[n+]1ccc(-c2nc(Br)ns2)cc1 [Compound A96],100%,100%,90%,80%,100%,100%,100%,100%,30%
"O=C(O)CC[n+]1ccc(-c2nc(O)ns2)cc1 [Compound A97, 3-[4-(3-hydroxy-1,2,4-thiadiazol-5-yl)pyridin-1-ium-1-yl]propanoic acid bromide]",0%,0%,10%,10%,10%,10%,0%,50%,10%
O=C(O)C[n+]1ccc(-c2nc(O)ns2)cc1 [Compound A98],40%,70%,10%,20%,30%,0%,50%,40%,10%
